Experimental data from patent publication US5089623A, “Certain imidate insecticides” (Imperial Chemical Industries Plc, priority 1990, dated 1992).

Experiments:
Format in all cases: in vivo
[1] = system: Tobacco Budworm [Heliothis virescens (Fabricius)] eggs; assay: Tobacco budworm egg test (TBW-E); settings: percent in solution
[2] = system: Housefly [Musca domestica]; assay: Housefly insecticidal test (HF); settings: per 25 female houseflies, 48 hours
[3] = system: Maize weevil [Sitophilus Zeamais (Motschulsky)]; assay: Maize weevil test (MW); settings: adult weevils, treated corn seeds, 48 hours, percent in solution
Experimental: The compounds in Tables 1 and 2 above were tested for insecticidal activity using the following testing procedures. LC50 values, based on the results of these tests and calculated according to dosage-mortality curves, are expressed in Table 3.
Maize weevil [Sitophilus Zeamais (Motschulsky)]
Test compounds were diluted in a 50:50 acetone:water solution. Four corn seeds [Zea mays (L.)] which had been immersed in test solutions for 2-3 seconds and allowed to dry were placed in containers together with 10 adult weevils. The containers were covered and kept at a temperature of about 25° C. Mortality was recorded after 48 hours. Test concentrations ranged from 0.01% down to that at which 50% mortalilty occurred. The LC50 values are expressed below in Table 3 under the heading "MW" in terms of percent of the test compound in solution.

[4] = system: Cabbage Looper [Trichoplusia ni (Hubner)]; assay: Cabbage looper test (CL); settings: second-instar larvae, 3-5 days, percent in solution

SMILES | LC50 TBW E [1] | LC50 HF [2] | LC50 MW [3] | LC50 CL [4]
CC(C)C(=Nc1ccc(F)c(Br)c1)OCc1cccc(Oc2ccc(Cl)cc2)c1 [Compound 398] | < 0.1% | < 100 µg | > 0.01% | < 0.1%
C=C(C)C(=Nc1ccc(F)c(Cl)c1)OCc1ccc(F)c(Oc2ccc(Cl)cc2)c1 [Compound 415] | 0.035% | < 100 µg | > 0.01% | 0.00075%
CC(C)C(=Nc1cc(F)c(Cl)cc1Cl)OCc1ccc(F)c(Oc2ccc(F)cc2)c1 [Compound 292] | 0.05% | 41 µg | > 0.01% | 0.00075%
CC(C)(C)C(=Nc1cccc(C(F)(F)F)c1)OCc1cccc(Oc2ccccc2)c1 [Compound 88] | > 0.1% | > 100 µg | > 0.01% | 0.018%
CC(C)C(=Nc1ccc(OC(F)(F)C(F)Cl)cc1)OCc1cccc(Oc2ccccc2)c1 (stereo not drawn) [Compound 418] | > 0.1% | > 100 µg | > 0.01% | > 0.1%
CC(C)C(=Nc1ccc(C(F)(F)F)cc1Cl)OCc1cccc(Oc2ccc(F)cc2)c1 [Compound 427] | > 0.1% | > 100 µg | > 0.01% | < 0.1%
CC(C)C(=Nc1cccc(C(F)(F)F)c1)OCc1ccnc(Oc2ccc(F)cc2)c1 [Compound 508] | > 0.1% | > 100 µg | > 0.01% | 0.013%
C=C(C)C(=Nc1ccc(C(F)(F)F)cc1)OCc1cccc(Oc2ccc(Cl)cc2)n1 [Compound 560] | < 0.1% | < 100 µg | > 0.01% | 0.0015%
CCOc1ccc(N=C(OCc2ccc(F)c(Oc3ccc(Cl)cc3)c2)C(C)C)cc1 [Compound 372] | > 0.1% | > 100 µg | > 0.01% | > 0.1%
CC(C)C(=Nc1ccc(I)c(Cl)c1)OCc1cccc(Oc2ccc(Cl)cc2)n1 [Compound 471] | 0.018% | < 100 µg | > 0.01% | 0.00018%
CC(C)C(=Nc1ccc(Cl)c(C(F)(F)F)c1)OCc1ccc(F)c(Oc2ccc(F)cc2)c1 [Compound 340] | 0.04% | 34 µg | 0.0069% | 0.00037%
CC(C)C(=Nc1ccc(Cl)cc1)OCc1cccc(Oc2ccc(Cl)cc2)n1 [Compound 554] | 0.04% | > 100 µg | > 0.01% | 0.00075%
CC(C)C(=Nc1ccc(OCC(F)(F)F)c(Cl)c1)OCc1cccc(Oc2ccc(F)cc2)c1 [Compound 420] | 0.05% | > 100 µg | > 0.01% | 0.00075%
CCOc1ccc(N=C(OCc2cccc(Oc3ccccc3)c2)C(C)C)cc1Cl [Compound 368] | 0.04% | < 100 µg | > 0.01% | 0.002%
CC(C)C(=Nc1cccc([N+](=O)[O-])c1)OCc1cccc(Oc2ccccc2)c1 [Compound 302] | > 0.1% | 15 µg | > 0.01% | 0.003%
CC(C)C(=Nc1ccc(F)c(Cl)c1)OCc1cccc(Oc2cccc(Cl)c2)c1 [Compound 203] | 0.06% | 43 µg | > 0.01% | 0.0025%
CC(C)C(=Nc1ccc(C(F)(F)F)c(Br)c1)OCc1ccc(F)c(Oc2ccccc2)c1 [Compound 434] | > 0.1% | < 100 µg | 0.009% | 0.0017%

SMILES | LC50 TBW E [1] | LC50 HF [2] | LC50 MW [3] | LC50 CL [4]
CC(C)C(=Nc1ccc(Cl)c(C(F)(F)F)c1)OCc1ccc(F)c(Oc2ccccc2)c1 [Compound 388] | > 0.1% | < 100 µg | > 0.01% | 0.0012%
CCOc1ccc(N=C(OCc2ccc(F)c(Oc3ccccc3)c2)C(C)C)cc1F [Compound 439] | > 0.1% | > 100 µg | > 0.01% | 0.00045%
CC(C)C(=Nc1ccc(F)c(Cl)c1)OCc1cccc(Oc2c(F)c(F)c(F)c(F)c2F)c1 [Compound 460] | > 0.1% | > 100 µg | > 0.01% | 0.02%
CC(C)C(=Nc1ccc(Br)c(Br)c1)OCc1ccc(F)c(Oc2ccccc2)c1 [Compound 384] | 0.025% | < 100 µg | > 0.01% | > 0.1%
CC(C)C(=Nc1cccc(C(F)(F)F)c1)OC(C)c1cccc(Oc2ccccc2)c1 (stereo not drawn) [Compound 459] | 0.1% | > 100 µg | > 0.01% | 0.008%
CC(C)C(=Nc1cccc(Br)c1)OCc1cccc(Oc2ccc(Cl)cc2)n1 [Compound 557] | > 0.1% | < 100 µg | > 0.01% | 0.0004%
CCc1ccc(N=C(OCc2cccc(Oc3ccc(Cl)cc3)n2)C(C)C)cc1 [Compound 552] | > 0.1% | > 100 µg | > 0.01% | 0.0016%
C=C(C)C(=Nc1ccc(C(F)(F)F)cc1)OCc1cccc(Oc2ccc(F)cc2)c1 [Compound 442] | 0.035% | < 100 µg | > 0.01% | 0.0007%
CC(C)C(=Nc1cccc(C(F)(F)F)c1)OCc1cc(Oc2ccc(Cl)cc2)ccn1 [Compound 509] | > 0.1% | 79 µg | > 0.01% | 0.0075%
CC(C)C(=Nc1ccc(C(F)(F)F)cc1)OCc1cccc(Oc2ccccc2)n1 [Compound 504] | 0.05% | < 100 µg | 0.01% | 0.00025%
CC(C)C(=Nc1ccc(F)c(I)c1)OCc1ccc(F)c(Oc2ccccc2)c1 [Compound 334] | 0.013% | 9 µg | > 0.01% | 0.0007%
COc1ccc(Oc2cccc(COC(=Nc3ccc(C(C)(C)C)cc3)C(C)C)c2)cc1 [Compound 345] | > 0.1% | > 100 µg | > 0.01% | 0.018%
Cc1ccc(Oc2cccc(COC(=Nc3ccc(C(C)(C)C)cc3)C(C)C)c2)cc1 [Compound 344] | > 0.1% | > 100 µg | > 0.01% | 0.024%
CC(C)C(=Nc1ccc(Br)cc1)OCc1coc(Cc2ccccc2)c1 [Compound 478] | > 0.1% | 15 µg | > 0.01% | 0.0037%
COc1ccc(N=C(OCc2ccc(F)c(Oc3ccc(Cl)cc3)c2)C(C)C)cc1 [Compound 412] | > 0.1% | < 100 µg | > 0.01% | > 0.1%
CC(C)C(=Nc1ccc(I)c(Cl)c1)OCc1ccc(F)c(Oc2ccc(F)cc2)c1 [Compound 385] | > 0.1% | < 100 µg | > 0.01% | > 0.1%
